One assay has as its target PI3Kalpha (Homo sapiens, UniProt P42336). The assay is described as follows: in vitro PI3Kalpha inhibition, Kinase Glo assay. It counts as biochemical. As to conditions: for remaining activity at 0.2 µM: Kinase Glo assay at 200 nM, % remaining activity, the smaller the value, the stronger the inhibition, read-out: In vitro PI3Kα, % remaining activity; for inhibitor activity against PI3K (in words): compared with ZSTK474 (4). On the procedure: (§1) The inhibitor efficacy and the cell permeability of the compounds of the invention are measured by in cell Western inhibition assay on melanoma cell line A2058 and TSC2−/− MEFs cell line. Furthermore, in vitro PI3Kalpha inhibition is measured (Table 1).
Background: Kinase-Glo reads ATP consumption through a luciferase reaction.

In a further assay the test system is melanoma cell line A2058. The assay is described as follows: in cell Western inhibition assay on melanoma cell line A2058. It is filed as cell-based. The note with it: Homo sapiens, the smaller the value, the stronger the inhibition. On the procedure:
as §1

The next assay has as its system TSC2-/- MEFs cell line. As to the kind of experiment: in cell Western inhibition assay on TSC2-/- MEFs cell line. The note with it: for activity at 1 µM: in cell Western, the smaller the value, the stronger the inhibition, read-out: TSC2-/- MEFs cell inhibition pS6, % remaining activity; for selectivity to mTOR (in words): compared with ZSTK474 (4). It counts as cell-based. The procedure:
as §1

Another assay deals with PI3Kgamma isoform (Homo sapiens, UniProt P48736). The assay is described as follows: fluorescence correlation spectroscopy binding to PI3Kgamma. As to conditions: binding leads to an increase in diffusion time. The procedure:
Fluorophore containing compound 13 can be used as a reference inhibitor by fluorescence correlation spectroscopy experiments in which the binding constants of novel inhibitors are determined. […] When the enzyme is saturated with compound 13, new possible ligands can be tested by observing the release of compound 13. This leads to a decrease in diffusion time.

Setting [1] is: read-out: A2058 cell inhibition pPKB/PKB, % remaining activity.
Where [2] appears, read: read-out: A2058 cell inhibition pS6, % remaining activity.

Here are results for ten compounds from patent publication US20130040912A1, “PIPERAZINOTRIAZINES AS PI3K INHIBITORS FOR USE IN THE TREATMENT ANTIPROLIFERATIVE DISORDERS” (UNIVERSITY OF BASEL, priority 2010, published 2013).

The remaining activity is the share of the control activity or signal that is left under treatment.

The structures appear in SMILES notation. Read-outs that look alike come from different tables or passages of the source.

Chain of PI3Kalpha (P42336 whole entry, species assumed): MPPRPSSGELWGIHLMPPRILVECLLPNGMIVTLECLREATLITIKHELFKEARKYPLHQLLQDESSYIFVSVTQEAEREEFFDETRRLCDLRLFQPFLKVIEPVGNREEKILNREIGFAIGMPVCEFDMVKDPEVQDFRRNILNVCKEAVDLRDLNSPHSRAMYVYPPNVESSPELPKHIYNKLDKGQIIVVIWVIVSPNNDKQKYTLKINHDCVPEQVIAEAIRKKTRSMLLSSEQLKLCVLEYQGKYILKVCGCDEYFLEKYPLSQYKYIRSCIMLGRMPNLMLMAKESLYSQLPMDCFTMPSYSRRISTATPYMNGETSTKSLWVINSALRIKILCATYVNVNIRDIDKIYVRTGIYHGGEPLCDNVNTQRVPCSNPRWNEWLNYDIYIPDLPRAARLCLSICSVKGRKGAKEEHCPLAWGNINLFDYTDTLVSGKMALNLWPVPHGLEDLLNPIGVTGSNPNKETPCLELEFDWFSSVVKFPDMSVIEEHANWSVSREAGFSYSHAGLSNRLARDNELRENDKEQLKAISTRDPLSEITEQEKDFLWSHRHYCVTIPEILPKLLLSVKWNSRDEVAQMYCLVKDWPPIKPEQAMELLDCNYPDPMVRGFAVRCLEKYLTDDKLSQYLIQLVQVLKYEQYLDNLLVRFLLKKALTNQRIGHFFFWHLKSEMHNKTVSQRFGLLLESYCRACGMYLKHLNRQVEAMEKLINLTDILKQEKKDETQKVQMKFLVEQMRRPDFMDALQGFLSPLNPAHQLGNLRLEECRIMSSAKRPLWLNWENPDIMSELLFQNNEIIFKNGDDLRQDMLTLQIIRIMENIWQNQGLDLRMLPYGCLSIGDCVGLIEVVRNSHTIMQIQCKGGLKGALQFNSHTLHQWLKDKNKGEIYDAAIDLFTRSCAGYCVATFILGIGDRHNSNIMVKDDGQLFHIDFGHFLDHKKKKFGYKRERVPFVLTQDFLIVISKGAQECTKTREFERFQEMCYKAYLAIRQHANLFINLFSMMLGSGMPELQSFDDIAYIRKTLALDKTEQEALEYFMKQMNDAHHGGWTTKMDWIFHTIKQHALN
Chain of PI3Kalpha (P27986 whole entry partner, species assumed): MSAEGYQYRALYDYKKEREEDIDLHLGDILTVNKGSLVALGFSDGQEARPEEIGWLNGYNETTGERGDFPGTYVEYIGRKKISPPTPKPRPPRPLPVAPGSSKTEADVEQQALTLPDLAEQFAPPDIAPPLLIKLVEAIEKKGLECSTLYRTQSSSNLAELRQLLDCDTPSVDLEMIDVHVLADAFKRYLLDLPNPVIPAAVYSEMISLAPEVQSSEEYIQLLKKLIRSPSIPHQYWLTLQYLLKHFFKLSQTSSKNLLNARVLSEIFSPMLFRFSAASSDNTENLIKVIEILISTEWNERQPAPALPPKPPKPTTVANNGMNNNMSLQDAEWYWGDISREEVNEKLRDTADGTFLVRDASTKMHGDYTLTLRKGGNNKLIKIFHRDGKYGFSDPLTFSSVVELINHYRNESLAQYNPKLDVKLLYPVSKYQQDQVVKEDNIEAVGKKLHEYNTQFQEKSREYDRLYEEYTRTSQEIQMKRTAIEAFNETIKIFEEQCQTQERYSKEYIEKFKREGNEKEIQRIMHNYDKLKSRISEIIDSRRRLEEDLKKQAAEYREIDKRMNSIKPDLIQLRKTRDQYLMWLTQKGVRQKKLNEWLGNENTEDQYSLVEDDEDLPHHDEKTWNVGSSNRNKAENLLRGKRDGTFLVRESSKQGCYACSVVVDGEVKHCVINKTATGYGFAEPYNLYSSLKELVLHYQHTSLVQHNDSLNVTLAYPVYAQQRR
Chain of PI3Kgamma isoform (P48736 whole entry, the tested form may be a part, canonical isoform): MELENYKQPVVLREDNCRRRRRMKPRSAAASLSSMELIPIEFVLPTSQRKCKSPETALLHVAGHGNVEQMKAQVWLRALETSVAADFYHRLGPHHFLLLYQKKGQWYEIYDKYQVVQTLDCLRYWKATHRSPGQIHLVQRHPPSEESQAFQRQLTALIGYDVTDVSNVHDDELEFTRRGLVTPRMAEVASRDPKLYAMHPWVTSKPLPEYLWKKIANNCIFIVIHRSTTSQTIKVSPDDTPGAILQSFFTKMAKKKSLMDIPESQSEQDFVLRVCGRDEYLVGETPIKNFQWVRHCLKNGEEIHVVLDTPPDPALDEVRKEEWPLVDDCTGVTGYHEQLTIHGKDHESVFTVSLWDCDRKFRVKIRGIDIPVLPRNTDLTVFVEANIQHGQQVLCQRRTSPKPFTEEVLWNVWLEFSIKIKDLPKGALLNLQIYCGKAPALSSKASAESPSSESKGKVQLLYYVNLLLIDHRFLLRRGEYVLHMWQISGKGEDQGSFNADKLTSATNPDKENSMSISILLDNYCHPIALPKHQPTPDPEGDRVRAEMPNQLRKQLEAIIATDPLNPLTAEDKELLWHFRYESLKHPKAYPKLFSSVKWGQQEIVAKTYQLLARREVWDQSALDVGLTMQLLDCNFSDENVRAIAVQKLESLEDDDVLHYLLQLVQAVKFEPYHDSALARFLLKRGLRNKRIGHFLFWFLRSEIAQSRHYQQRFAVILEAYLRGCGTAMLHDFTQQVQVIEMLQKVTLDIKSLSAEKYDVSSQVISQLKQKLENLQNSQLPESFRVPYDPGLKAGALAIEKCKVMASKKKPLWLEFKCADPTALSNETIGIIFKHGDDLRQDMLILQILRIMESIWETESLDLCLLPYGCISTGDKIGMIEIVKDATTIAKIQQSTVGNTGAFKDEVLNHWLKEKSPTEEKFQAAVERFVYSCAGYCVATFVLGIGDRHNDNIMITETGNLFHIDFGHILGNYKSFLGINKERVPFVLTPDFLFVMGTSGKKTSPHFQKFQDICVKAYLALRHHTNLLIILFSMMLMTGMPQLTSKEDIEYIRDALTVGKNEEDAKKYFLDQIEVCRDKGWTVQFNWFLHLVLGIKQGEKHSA

`CCOCCN1CCN(c2nc(N3CCOCC3)nc(-n3c(C(F)F)nc4ccccc43)n2)CC1` [Compound 12, 4-(4-(2-(Difluoromethyl)-1H-benzo[d]imidazol-1-yl)-6-(4-(2-ethoxyethyl)piperazin-1-yl)-1,3,5-triazin-2-yl)morpholine]: the remaining activity at 0.2 µM on PI3Kalpha worked out at 42%. Further, the activity at 1 µM in the assay on melanoma cell line A2058 (setting [1]) came to 15.9 ± 2.46%; in the assay on melanoma cell line A2058 (setting [2]), 24.4 ± 4.34%; in the assay with TSC2-/- MEFs cell line, 77.1 ± 4.62%.
Consider `CN1CCN(c2nc(N3CCOCC3)nc(-n3c(C(F)F)nc4ccccc43)n2)CC1` [Compound 5, 4-(4-(2-(Difluoromethyl)-1H-benzo[d]imidazol-1-yl)-6-(4-methylpiperazin-1-yl)-1,3,5-triazin-2-yl)morpholine], for which, on PI3Kalpha, the “activity (in words)” value is reported as “substantially more active than compound 17”, the remaining activity at 0.2 µM was 33% and the “inhibitor activity against PI3K (in words)” value is recorded as “Increasing of inhibitor activity against PI3K”. For the same compound, in the assay on melanoma cell line A2058 (setting [1]), the activity at 1 µM is 4.13 ± 0.37%. In the assay on melanoma cell line A2058 (setting [2]), the activity at 1 µM came to 18.5 ± 1.7%. In the assay with TSC2-/- MEFs cell line, the activity at 1 µM is 67.3 ± 1.26% and the “selectivity to mTOR (in words)” value is reported as “diminishing of selectivity to mTOR”.
With `C=CC(=O)N1CCN(c2nc(N3CCOCC3)nc(-n3c(C(F)F)nc4ccccc43)n2)CC1` [Compound 8, 1-(4-(4-(2-(Difluoromethyl)-1H-benzo[d]imidazol-1-yl)-6-morpholino-1,3,5-triazin-2-yl)piperazin-1-yl)prop-2-en-1-one], the remaining activity at 0.2 µM on PI3Kalpha stood at 8%. The figures for the activity at 1 µM in the assay with melanoma cell line A2058 (setting [1]), in the assay with melanoma cell line A2058 (setting [2]) and with TSC2-/- MEFs cell line were 13 ± 0.01%, 23 ± 4.22% and 95 ± 7.44%, respectively.
`CCS(=O)(=O)N1CCN(c2nc(N3CCOCC3)nc(-n3c(C(F)F)nc4ccccc43)n2)CC1` [Compound 7, 4-(4-(2-(Difluoromethyl)-1H-benzo[d]imidazol-1-yl)-6-(4-(ethylsulfonyl)piperazin-1-yl)-1,3,5-triazin-2-yl)morpholine]: on PI3Kalpha, the remaining activity at 0.2 µM is 35% and the “inhibitor activity against PI3K (in words)” value is reported as “slightly decreased”. Further, in the assay with melanoma cell line A2058 (setting [1]), the activity at 1 µM worked out at 30.7 ± 1.08%. Besides, the activity at 1 µM in the assay with melanoma cell line A2058 (setting [2]) turned out to be 56.7 ± 10.6%. Further, in the assay on TSC2-/- MEFs cell line, the activity at 1 µM amounted to 104 ± 4.27% and the “selectivity to mTOR (in words)” value was “notable reduced”.
Take `O=C(CCCCCNC(=O)COc1ccc(/C=C/C2=[N+]3C(=Cc4ccc(-c5cccs5)n4[B-]3(F)F)C=C2)cc1)NCCN1CCN(c2nc(N3CCOCC3)nc(-n3c(C(F)F)nc4ccccc43)n2)CC1` [Compound 13, (E)-3-(4-(2-((6-((2-(4-(4-(2-(Difluoromethyl)-1H-benzo[d]imidazol-1-yl)-6-morpholino-1,3,5-triazin-2-yl)piperazin-1-yl)ethyl)amino)-6-oxohexyl)amino)-2-oxoethoxy)styryl)-5,5-difluoro-7-(thiophen-2-yl)-5H-dipyrrolo[1,2-c:2′,1′-f][1,3,2]diazaborinin-4-ium-5-uide]: at PI3Kalpha, the “activity (in words)” value is recorded as “active”. For the same compound, the remaining activity at 0.2 µM at PI3Kalpha was determined as 13%. For the same compound, the activity at 1 µM with melanoma cell line A2058 (setting [1]) was found to be 47.5 ± 5.48%; in the assay on melanoma cell line A2058 (setting [2]) it was 57.3 ± 6.86%; with TSC2-/- MEFs cell line it was 95.5 ± 9.81%. The “binding to PI3Kgamma isoform (in words)” value on PI3Kgamma isoform is listed as “binds to the PI3Kgamma isoform”.
`CN1CCN(c2nc(N3CCOCC3)nc(-n3cnc4ccccc43)n2)CC1` [Compound 17, reference compound]: the remaining activity at 0.2 µM at PI3Kalpha was 83%. Further, the results for the activity at 1 µM with melanoma cell line A2058 (setting [1]), with melanoma cell line A2058 (setting [2]) and in the assay on TSC2-/- MEFs cell line were 122 ± 2.58%, 83 ± 3.31% and 123 ± 5.78%, respectively.
Turning to `C=CC(=O)NCCN1CCN(c2nc(N3CCOCC3)nc(-n3c(C(F)F)nc4ccccc43)n2)CC1` [Compound 10, N-(2-(4-(4-(2-(Difluoromethyl)-1H-benzo[d]imidazol-1-yl)-6-morpholino-1,3,5-triazin-2-yl)piperazin-1-yl)ethyl)acrylamide], the remaining activity at 0.2 µM on PI3Kalpha is 20%. In addition, the activity at 1 µM was 3.99 ± 1.18% in the assay on melanoma cell line A2058 (setting [1]), 12.7 ± 1.69% in the assay on melanoma cell line A2058 (setting [2]) and 74.5 ± 5.9% with TSC2-/- MEFs cell line.
For `FC(F)c1nc2ccccc2n1-c1nc(N2CCOCC2)nc(N2CCOCC2)n1` [Compound 4, 4,4′-(6-(2-(Difluoromethyl)-1H-benzo[d]imidazol-1-yl)-1,3,5-triazine-2,4-diyl)dimorpholine, reference compound] the same measures were 13%, 3.63 ± 1.1%, 22.5 ± 0.13% and 37.9 ± 4.21%.
For `CCCCCCN1CCN(c2nc(N3CCOCC3)nc(-n3c(C(F)F)nc4ccccc43)n2)CC1` [Compound 11, 4-(4-(2-(Difluoromethyl)-1H-benzo[d]imidazol-1-yl)-6-(4-hexylpiperazin-1-yl)-1,3,5-triazin-2-yl)morpholine] the same measures were 45%, 85.2 ± 3.71%, 74 ± 10.3% and 85.7 ± 5.71%.
For `NCCN1CCN(c2nc(N3CCOCC3)nc(-n3c(C(F)F)nc4ccccc43)n2)CC1` [Compound 9, 2-(4-(4-(2-(Difluoromethyl)-1H-benzo[d]imidazol-1-yl)-6-morpholino-1,3,5-triazin-2-yl)piperazin-1-yl)ethanamine] the same measures were 50%, 16.5 ± 0.24%, 30.9 ± 4.06% and 89.9 ± 9.5%.
